According to patent US20050025769A1, “Method of suppressing ongoing acute allograft rejection” (Fujisawa Pharmaceutical Company, Ltd., priority 1999, published 2005):

Legend:
[1] = test system: IL10 protein; assay: ELISA assay of IL10 protein in serum peripheral lymphocytes of heart allograft recipients; type: in vivo, rat; conditions: day 7 post-transplantation, compared with the allograft control; optimal doses from day 5
Procedure: (§1) The transplantation method described in Example 5 was used. […] The levels of IL2, IL4 and IL10 proteins in serum peripheral lymphocytes were measured at day 7 post-transplantation by ELISA assay.

[2] = test system: CD4+, CD8+, NKR-P1A, and ED2 positive cells; assay: Immunohistological examination of cell infiltration into heart allograft tissue; type: in vivo, rat; conditions: CsA 10 mg/kg/day, tacrolimus 3.2 mg/kg/day orally from day 5
Description: The presence of CD4+, CD8+, NKR-P1A, and ED2 positive cells was examined on day 5, 7 and 10 after transplantation by immunohistological examination of graft tissue immunostained with specific antibodies to various immune cell populations. For immunohistology, 4 μm frozen sections of heart tissue were cut, fixed with acetone and exposed to monoclonal antibodies (Pharmingen, San Diego, Calif.) against markers for CD4+ (helper T cells), CD8^+ (cytotoxic T cells), NKR-P1A (natural killer cells), and ED2 (macrophage cells) positive cells. Then the sections were incubated with peroxidase-conjugated anti-mouse IgG antibodies. The bound peroxidase was detected using 3-amino-9-ethylcarbazole. The results were scored quantitatively. In each tissue section, three random representative fields were counted by visual microscope (×40) to determine the average cell number per tissue.

[3] = test system: allograft survival; conditions: optimal doses administered several days after transplantation, after allograft rejection has begun; cited from earlier work
[4] = test system: liver transplantation; conditions: clinical organ transplantation, estimated; cited from earlier work
[5] = test system: IL2 and IL4 protein; assay: ELISA assay of IL2 and IL4 proteins in serum peripheral lymphocytes of heart allograft recipients; type: in vivo, rat; conditions: day 7 post-transplantation; optimal doses from day 5
Procedure: as §1

[6] = test system: heart allografts (BN to LEW); assay: Rat heart transplantation, primary therapy to prevent acute allograft rejection (drug day 0 to day 10); type: in vivo; conditions: for median survival time (MST) of heart allografts: day 0 to day 10 after transplantation, allograft control 6 days
Description: (§2) Inbred male Lewis rats (LEW) (RT1^1), weighing 200-250 g, were used as heart transplantation recipients. Inbred male LEW and inbred male Brown Norway (BN) (RT1^a), weighing 150-200 g, were used as isograft and allograft donor rats, respectively. […] Rejection of heart grafts was defined as the complete cessation of impulse and was confirmed visually after laparatomy. […] Control isograft and allograft recipients (5 rats each) received no immunosuppressant drugs after transplantation.

[7] = test system: IL10 mRNA; assay: RT-PCR for IL10 mRNA in heart graft tissues; type: in vivo, rat; conditions: days 7 and 10; CsA 10 mg/kg/day, tacrolimus 3.2 mg/kg/day from day 5
Procedure: At day 5, 7 and 10 after transplantation, total RNA was extracted from heart graft tissues and tested by reverse transcriptase-polymerase chain reaction (RT-PCR) for cytokine mRNAs. Total RNA was extracted from transplanted heart tissue by TRIZOL (GIBCO BRL, Gaithersburg, Md.). RT-PCR was performed by reverse transcribing total RNA into cDNA using random hexamers (GIBCO BRL, Gaithersburg, Md.). The reverse-transcribed material was added to the PCR mixture with sense and anti-sense primers of IFNγ, IL2, IL4, IL10, IL1β, IL6, TNFα, TGFβ, Granzyme, Perforin or G3PDH and Taq DNA polymerase (Boehringer Mann heim GmbH, Mannheim, Germany). Amplification was performed with optimized cycles for each cytokine or G3PDH by ThermalCycler (Perkin-Elmer, Branchburg, N.J.). PCR product was applied to 2.3% agarose gel, resolved by electrophoresis, and visualized by ethidium bromide staining. The intensity of the gene-specific bands was obtained by the Gel Doc 1000 documentation system (BIO-RAD Laboratories, Hercules, Calif.). G3PDH mRNA was amplified as an internal control for RT-PCR.

[8] = test system: renal allografts (BN to LEW); assay: Rescue of ongoing renal allograft rejection (drug from day 2 or day 4 for 13 days); type: in vivo, rat; conditions: untreated allograft controls rejected at day 8
Procedure: Male LEW rats weighing 250-350 g and male BN rats weighing 150-250 g were kept under specific pathogen-free conditions in the animal facility at Fujisawa Pharmaceutical Co., Ltd., Osaka, Japan. […] The donor ureter was directly implanted into the recipient bladder over a fine polyethylene internal stent. All recipients were bilaterally nephrectomized at the time of transplantation. The graft ischemic time was approximately 30 minutes. Survival of the kidney transplant was measured as time of rat survival. Graft rejection was confirmed by histological examination of kidney tissue from recipients with the observation of interstitial hemorrhage, tubular necrosis, venous endotheliatitis and diffuse lymphoplasmacytic infiltration indicating graft rejection. […] Control isograft and allograft recipients received either distilled water, olive oil, or placebo after transplantation.

[9] = test system: heart allografts, ongoing graft rejection; assay: Rescue of ongoing heart allograft rejection (drug from day 5 for 10 days); type: in vivo, rat; conditions: 3.2 mg/kg/day on days 5-14 post-transplantation
Description: as §2
Therefore, drug administration was halted from day 0-day 4 after heart transplantation in order to initiate the transplantation process.

[10] = test system: T-cell-dependent antibody production, graft vs. host reactivity, delayed-type sensitivity reactions; conditions: suppressing T-cell-dependent antibody production; cited from earlier work

C=CC[C@@H]1/C=C(\C)C[C@H](C)C[C@H](OC)[C@H]2O[C@@](O)(C(=O)C(=O)N3CCCC[C@H]3C(=O)O[C@H](/C(C)=C/[C@@H]3CC[C@@H](O)[C@H](OC)C3)[C@H](C)[C@@H](O)CC1=O)[C@H](C)C[C@@H]2OC [tacrolimus, Tacrolimus]
suppression of IL10 protein expression [1]: 73% | suppression of all of the cell infiltration into the local graft tissues ([2]; day 7): no significant suppression | blocking CD8+ and NKR-P1A cell infiltration ([2]; day 10): significantly blocked | blocking the CD4+ and ED2 cell filtration ([2]; day 10): partially blocking | effect on allograft survival [3]: significantly increase allograft survival | potency relative to CsA in liver transplantation [4]: three to ten orders of magnitude more potent | suppression of the expression of IL2 and IL4 protein [5]: equally | median survival time (MST) of heart allografts ([6]; 1.0 mg/kg/day orally): 12 days | median survival time (MST) of heart allografts ([6]; 3.2 mg/kg/day orally): 19 days | median survival time (MST) of heart allografts ([6]; 10 mg/kg/day orally): 21 days | optimal dose ([6]; primary therapy, oral, day 0 to day 10, based on MST): 3.2 mg/kg/day | suppression of IL10 mRNA expression [7]: more than CsA | recipient rats that survived more than 50 days ([8]; 3.2 mg/kg/day from day 2-14 after grafting): all of 5 | recipient rats that survived more than 50 days ([8]; 3.2 mg/kg/day from day 4-16 after grafting): 3 of 5 | extension of the survival of the graft ([9]; versus allograft control): about 13 days | MST of heart allografts ([9]; allograft control 6 days): 19 days | potency relative to CsA in vivo [10]: 10 times
